Converted amounts (≈) assume the structure as drawn. The source made the active and inactive calls. The rule behind the calls is not given here.
Assays:
Mus musculus [1] = assay: Upregulation of PPARalpha gene expression in C57BL/6JRj mouse liver at 30 mg/kg/day, po administered with drinking water after 2 weeks by qPCR method; type: functional, organism-based
[2] = target: Free fatty acid receptor 1 (Homo sapiens) (UniProt O14842); assay: Partial agonist activity at human free fatty acid receptor 1 expressed in HEK293 cells assessed as inositol phosphate 1 accumulation incubated for 30 mins; type: functional, cell-based
HepG2 = assay: Cytotoxicity against human HepG2 cells assessed as cell viability up to 30 uM after 48 hrs by WST-1 assay; type: cell-based; details: hepg2, 48 h
[3] = Apparent volume of distribution during terminal phase in RjOrl:Swiss (CD-1) mouse plasma at 30 mg/kg, po; type: ADME, organism-based; details: read-out: Vz/F
[4] = Drug level in supernatant of African green monkey COS7 cells treated with Ethyl 2-Ethyl 3-[4-(N-(4-methoxy(2-trifluoromethyl)benzyl)-benzamide)]propanoate at 10 uM after 12 hrs by HPLC analysis; type: ADME, cell-based; details: chlorocebus aethiops, cos-7, 12 h
Mus musculus [5] = assay: In vivo transactivation of PPARgamma in C57BL/6JRj mouse assessed as increase in PGC-1alpha expression in liver at 30 mg/kg/day, po administered with drinking water measured after 2 weeks by qPCR method; type: functional, organism-based
Mus musculus [6] = assay: In vivo transactivation of PPARgamma in C57BL/6JRj mouse assessed as increase in sEH expression in liver at 30 mg/kg/day, po administered with drinking water after 2 weeks by qPCR method; type: functional, organism-based
Mus musculus [7] = assay: Upregulation of LXRalpha regulated ApoE expression in C57BL/6JRj mouse liver at 30 mg/kg/day, po administered with drinking water measured after 2 weeks by qPCR method; type: functional, organism-based
[8] = target: Free fatty acid receptor 1 (Mus musculus) (UniProt Q76JU9); assay: Partial agonist activity at mouse free fatty acid receptor 1 expressed in HEK293 cells assessed as inositol phosphate 1 accumulation incubated for 30 mins; type: functional, cell-based
Mus musculus [9] = assay: In vivo transactivation of PPARgamma in C57BL/6JRj mouse assessed as increase in CD36 expression in liver at 30 mg/kg/day, po administered with drinking water measured after 2 weeks by qPCR method; type: functional, organism-based
[10] = target: T1, Peroxisome proliferator-activated receptor alpha (Homo sapiens) (UniProt Q07869); assay: Transactivation of human PPARalpha expressed in African green monkey COS7 cells at 10 uM incubated overnight by dual-glo luciferase reporter assay; type: cell-based; details: COS-7
T1 sequence (whole entry): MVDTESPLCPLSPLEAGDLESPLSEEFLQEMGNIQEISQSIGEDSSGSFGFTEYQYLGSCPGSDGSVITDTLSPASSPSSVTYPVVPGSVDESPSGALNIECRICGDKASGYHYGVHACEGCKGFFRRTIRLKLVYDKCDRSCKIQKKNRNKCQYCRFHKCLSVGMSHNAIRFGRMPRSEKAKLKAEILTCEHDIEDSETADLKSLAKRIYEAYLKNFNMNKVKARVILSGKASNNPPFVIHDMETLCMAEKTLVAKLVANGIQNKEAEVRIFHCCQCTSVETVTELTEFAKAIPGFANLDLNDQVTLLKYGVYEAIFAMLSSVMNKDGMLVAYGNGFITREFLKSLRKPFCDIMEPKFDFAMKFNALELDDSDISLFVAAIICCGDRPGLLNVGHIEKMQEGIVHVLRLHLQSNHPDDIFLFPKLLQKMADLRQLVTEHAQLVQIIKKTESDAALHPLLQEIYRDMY

[11] = AUC (0 to infinity) in RjOrl:Swiss (CD-1) mouse plasma at 30 mg/kg, po; type: ADME, organism-based; set-up: dose 30 mg/kg, time infinity, route oral
Mus musculus [12] = assay: Upregulation of LXRalpha regulated ABCA1 expression in C57BL/6JRj mouse liver at 30 mg/kg/day, po administered with drinking water measured after 2 weeks by qPCR method; type: functional, organism-based
[13] = Apparent oral clearance in RjOrl:Swiss (CD-1) mouse plasma at 30 mg/kg; type: ADME, organism-based
[14] = target: T2, Peroxisome proliferator-activated receptor delta (Homo sapiens, UniProt Q03181); assay: Transactivation of human PPARdelta expressed in African green monkey COS7 cells incubated overnight by dual-glo luciferase reporter gene assay; type: cell-based; details: cos-7
T2 sequence (Q03181 whole entry): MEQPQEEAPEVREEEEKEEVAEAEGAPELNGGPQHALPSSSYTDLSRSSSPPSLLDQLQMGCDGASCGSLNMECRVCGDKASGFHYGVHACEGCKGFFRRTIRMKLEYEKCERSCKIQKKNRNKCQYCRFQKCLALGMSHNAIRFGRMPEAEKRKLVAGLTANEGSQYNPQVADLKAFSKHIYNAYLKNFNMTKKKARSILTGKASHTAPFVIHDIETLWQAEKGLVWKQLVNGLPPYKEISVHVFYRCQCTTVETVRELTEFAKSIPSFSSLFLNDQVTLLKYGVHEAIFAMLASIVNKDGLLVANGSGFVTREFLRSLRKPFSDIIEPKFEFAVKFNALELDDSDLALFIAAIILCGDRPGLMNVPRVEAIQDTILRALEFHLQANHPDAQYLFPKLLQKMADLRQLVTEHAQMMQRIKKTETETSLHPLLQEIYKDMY

Mus musculus [15] = assay: Upregulation of PPARgamma gene expression in C57BL/6JRj mouse liver at 30 mg/kg/day, po administered with drinking water measured after 2 weeks by qPCR method; type: functional, organism-based
[16] = Cmax in RjOrl:Swiss (CD-1) mouse plasma at 30 mg/kg, po; type: ADME, organism-based; set-up: dose 30 mg/kg, route oral
[17] = Solubility of the compound in water by microplate reader analysis; type: physicochemical
Mus musculus [18] = assay: In vivo transactivation of PPARgamma in C57BL/6JRj mouse assessed as increase in LXRalpha expression in liver at 30 mg/kg/day, po administered with drinking water measured after 2 weeks by qPCR method; type: functional, organism-based

Chain of Free fatty acid receptor 1 (Mus musculus) (Q76JU9 whole entry): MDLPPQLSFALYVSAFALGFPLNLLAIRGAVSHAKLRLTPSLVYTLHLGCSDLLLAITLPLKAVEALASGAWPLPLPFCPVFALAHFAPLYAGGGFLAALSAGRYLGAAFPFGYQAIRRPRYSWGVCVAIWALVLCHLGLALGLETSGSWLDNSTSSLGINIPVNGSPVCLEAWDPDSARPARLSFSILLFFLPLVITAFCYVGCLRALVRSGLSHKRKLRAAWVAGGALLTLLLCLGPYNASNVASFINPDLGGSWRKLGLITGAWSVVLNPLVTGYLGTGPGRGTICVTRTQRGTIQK
Chain of Free fatty acid receptor 1 (Homo sapiens) (O14842 whole entry): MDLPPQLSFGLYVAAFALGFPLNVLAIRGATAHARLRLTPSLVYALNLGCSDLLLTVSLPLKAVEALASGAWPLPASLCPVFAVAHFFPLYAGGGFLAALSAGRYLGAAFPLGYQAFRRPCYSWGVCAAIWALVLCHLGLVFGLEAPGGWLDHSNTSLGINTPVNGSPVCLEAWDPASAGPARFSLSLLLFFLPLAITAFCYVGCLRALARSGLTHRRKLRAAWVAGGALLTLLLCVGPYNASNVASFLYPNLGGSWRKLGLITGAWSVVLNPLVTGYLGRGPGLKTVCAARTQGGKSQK

SMILES: CCC(Cc1ccc(C(=O)NCc2ccc(OC)cc2C(F)(F)F)cc1)C(=O)O (centres undefined)
- Activity (Mus musculus [1]): Active
- Activity [2]: Active
- Activity (HepG2): Non-toxic
- Vd/F [3]: 2 L/kg
- Drug metabolism [4]: metabolite_detected
- Activity (Mus musculus [5]): Active
- Activity (Mus musculus [6]): Active
- Activity (Mus musculus [7]): inactive
- Activity [8]: Active
- Activity (Mus musculus [9]): Active
- Activity [10]: 29%
- AUC(0-inf) [11]: 94400 ng·h/mL
- Activity (Mus musculus [12]): inactive
- CL/F [13]: 5 mL/min/kg
- EC50 [14]: Not Active
- Activity (Mus musculus [15]): Active
- Cmax [16]: 29100 ng/mL
- solubility [17]: 375 µM (≈ 154 µg/mL)
- Activity (Mus musculus [18]): Active

Source: ChEMBL document CHEMBL3763124, “N-Benzylbenzamides: A Novel Merged Scaffold for Orally Available Dual Soluble Epoxide Hydrolase/Peroxisome Proliferator-Activated Receptor γ Modulators” (J Med Chem, 2016)
